# Assay results taken from publication PMC7883216 (Peptides, 2021).
# Where two headings read alike, the source gives them in different places.
# Experiments:
# [1] = in humans; cited from earlier work
# [2] = Pharmacokinetics of exogenous mouse GIP; type: in vivo, female C57Bl/6Jrj mice; conditions: for peak intact GIP concentration as % of peak total GIP concentration: in-house RIAs; for increase of iAUC of intact GIP upon co-administration of Val-Pyr: P < 0.0001; for Clearance, corrected for body weight / Apparent volume of distribution corrected for body weight: IV 25 nmol/kg BW, mean ± SE, n = 6-9; for Clearance, corrected for body weight: CL = k*Vd
# [3] = anaesthetized rats; cited from earlier work
# [4] = female, C57Bl/6Jrj, mouse, plasma, iv, 25 nmol/kg BW
"peak intact GIP concentration as % of peak total GIP concentration ([2]; IP injection 25 nmol/kg BW, with Val-Pyr) [%]","peak intact GIP concentration as % of peak total GIP concentration ([2]; IP injection 25 nmol/kg BW, without Val-Pyr) [%]","increase of iAUC of intact GIP upon co-administration of Val-Pyr ([2]; IP injection 25 nmol/kg BW, Fig. 1F) [fold]","peak intact GIP concentration as % of peak total GIP concentration ([2]; IV injection 25 nmol/kg BW, with Val-Pyr) [%]","peak intact GIP concentration as % of peak total GIP concentration ([2]; IV injection 25 nmol/kg BW, without Val-Pyr, mean) [%]","increase of iAUC of intact GIP upon co-administration of Val-Pyr ([2]; IV injection 25 nmol/kg BW, Fig. 1B) [fold]","peak intact GIP concentration as % of peak total GIP concentration ([2]; SC injection 25 nmol/kg BW, with Val-Pyr) [%]","peak intact GIP concentration as % of peak total GIP concentration ([2]; SC injection 25 nmol/kg BW, without Val-Pyr) [%]","increase of iAUC of intact GIP upon co-administration of Val-Pyr ([2]; SC injection 25 nmol/kg BW, Fig. 1D) [fold]","half-life [2, 4] [min]","tissue uptake dose [2, 4] [%ID]","tissue uptake dose ([2]; female, C57Bl/6Jrj, mouse, plasma, sc, 25 nmol/kg BW) [%ID]",intact GIP levels as % of total GIP plasma concentrations ([2]; following SC and IP GIP administration without DPP-4 inhibitor),Molecule,plasma half-life [1],"Clearance, corrected for body weight ([2]; Val-Pyr co-administration) [µL/min/g]",Apparent volume of distribution corrected for body weight ([2]; Val-Pyr co-administration) [mL/g],"Clearance, corrected for body weight ([2]; placebo (no Val-Pyr)) [µL/min/g]","Apparent volume of distribution corrected for body weight ([2]; placebo (no Val-Pyr), Vd = total dose/C0) [mL/g]",plasma half-life [3]
82,16,7.8,110,41,5.4,82,14,8.1,1.5,13 ± 1,10 ± 1,approximately 15%,CC[C@H](C)[C@H](NC(=O)[C@H](CO)NC(=O)[C@H](Cc1ccc(O)cc1)NC(=O)[C@H](CC(=O)O)NC(=O)[C@H](CO)NC(=O)[C@@H](NC(=O)[C@H](Cc1ccccc1)NC(=O)[C@@H](NC(=O)CNC(=O)[C@H](CCC(=O)O)NC(=O)[C@H](C)NC(=O)[C@@H](N)Cc1ccc(O)cc1)[C@@H](C)O)[C@@H](C)CC)C(=O)N[C@@H](C)C(=O)N[C@@H](CCSC)C(=O)N[C@@H](CC(=O)O)C(=O)N[C@@H](CCCCN)C(=O)N[C@H](C(=O)N[C@@H](CCCNC(=N)N)C(=O)N[C@@H](CCC(N)=O)C(=O)N[C@@H](CCC(N)=O)C(=O)N[C@@H](CC(=O)O)C(=O)N[C@@H](Cc1ccccc1)C(=O)N[C@H](C(=O)N[C@@H](CC(N)=O)C(=O)N[C@@H](Cc1c[nH]c2ccccc12)C(=O)N[C@@H](CC(C)C)C(=O)N[C@@H](CC(C)C)C(=O)N[C@@H](C)C(=O)N[C@@H](CCC(N)=O)C(=O)N[C@@H](CCCNC(=N)N)C(=O)NCC(=O)N[C@@H](CCCCN)C(=O)N[C@@H](CCCCN)C(=O)N[C@@H](CO)C(=O)N[C@@H](CC(=O)O)C(=O)N[C@@H](Cc1c[nH]c2ccccc12)C(=O)N[C@@H](CCCCN)C(=O)N[C@@H](Cc1c[nH]cn1)C(=O)N[C@@H](CC(N)=O)C(=O)N[C@H](C(=O)N[C@H](C(=O)N[C@@H](CCC(N)=O)C(=O)O)[C@@H](C)O)[C@@H](C)CC)C(C)C)[C@@H](C)CC [GIP(1–42)],approximately 7 min,45 ± 4,0.46 ± 0.03,207 ± 16,0.34 ± 0.1,approximately 2 min
,,,,,,,,,,,,,"human GIP(1–42): human GIP(1–42), half-life in humans quoted from ref 11",approximately 7 min,,,,,
